Experimental data taken from patent US20250353863A1, “TRICYCLIC SPIROLACTAM COMPOUNDS WITH ANTIMYCOBACTERIAL ACTIVITY” (priority 2022, published 2025).
Converted amounts (≈) assume the structure as drawn.

What follows are molecules tested on Mtb H37Rv-WT (assay: MIC by resazurin microtiter assay (REMA) against Mtb). Conditions: Mycobacterium tuberculosis, 144 h, REMA, 37° C., 6 days, read-out: MIC (μM) H37Rv-WT.
Assay type: cell-based
`CC(C)[C@H]1CO[C@]23CCN(Cc4ccc(F)cc4)C[C@H]2CCC(=O)N13` [(3S,7aR,11aR)-9-[(4-fluorophenyl)methyl]-3-isopropyl-2,3,6,7,7a,8,10,11-octahydrooxazolo[2,3-j][1,6]naphthyridin-5-one] showed an MIC of less than 1 µM. `CC(C)[C@H]1CO[C@]23CCN(Cc4ccc(N5CCC(Oc6ccc(OC(F)(F)F)cc6)CC5)cc4)C[C@H]2CCC(=O)N13` [(3S,7aR,11aR)-3-isopropyl-9-[[4-[4-[4-(trifluoromethoxy)phenoxy]-1-piperidyl]phenyl]methyl]-2,3,6,7,7a,8,10,11-octahydrooxazolo[2,3-j][1,6]naphthyridin-5-one] gave an MIC of less than 1 µM. `CC[C@H]1C[C@@H]2CN(Cc3ccc(C(F)(F)F)cc3)CC[C@@]23OC[C@H](C(C)C)N3C1=O` [(3S,6S,7aR,11aR)-6-ethyl-3-isopropyl-9-[[4-(trifluoromethyl)phenyl]methyl]-2,3,6,7,7a,8,10,11-octahydrooxazolo[2,3-j][1,6]naphthyridin-5-one] showed an MIC greater than 10 µM. With `CC(C)[C@H]1CO[C@]23CCN(Cc4ccc(Cl)cc4)C[C@H]2CCC(=O)N13` [(3S,7aR,11aR)-9-[(4-chlorophenyl)methyl]-3-isopropyl-2,3,6,7,7a,8,10,11-octahydrooxazolo[2,3-j][1,6]naphthyridin-5-one] the MIC was less than 1 µM. `CC(C)[C@H]1CCO[C@]23CCN(Cc4ccc(C(F)(F)F)cc4)C[C@H]2CCC(=O)N13` was tested, and the MIC was 1 to 10 µM (≈ 0.41 to 4.1 µg/mL). `CC(C)[C@H]1CO[C@]23CCN(S(=O)(=O)Cc4ccc(C(F)(F)F)cc4)C[C@H]2CCC(=O)N13` gave an MIC of less than 1 µM. Molecule `C=CC[C@@H]1C[C@@H]2CN(Cc3ccc(C(F)(F)F)cc3)CC[C@@]23OC[C@H](C(C)C)N3C1=O` [(3S,6R,7aR,11aR)-6-allyl-3-isopropyl-9-[[4-(trifluoromethyl)phenyl]methyl]-2,3,6,7,7a,8,10,11-octahydrooxazolo[2,3-j][1,6]naphthyridin-5-one] has an MIC of 1 to 10 µM (≈ 0.437 to 4.37 µg/mL). In the case of `CC(C)[C@H]1CO[C@]23CCN(Cc4ccc(OC(F)(F)F)cc4)C[C@H]2CCC(=O)N13`, the MIC is reported as less than 1 µM. Work on `CC(C)[C@H]1CO[C@]23CCN(Cc4cc(C(F)(F)F)nc5ccccc45)C[C@H]2CCC(=O)N13` [(3S,7aR,11aR)-3-isopropyl-9-[[2-(trifluoromethyl)-4-quinolyl]methyl]-2,3,6,7,7a,8,10,11-octahydrooxazolo[2,3-j][1,6]naphthyridin-5-one] yielded an MIC of less than 1 µM. Work on `CC(C)[C@H]1CO[C@]23CCN(C(=O)OCCCc4ccc(C(F)(F)F)cc4)C[C@H]2CCC(=O)N13` yielded an MIC of 1 to 10 µM (≈ 0.469 to 4.69 µg/mL). `CC(C)[C@H]1CO[C@]23CCN(CC(F)(F)c4ccc(C(F)(F)F)cc4)C[C@H]2CCC(=O)N13` [(3S,7aR,11aR)-9-[2,2-difluoro-2-[4-(trifluoromethyl)phenyl]ethyl]-3-isopropyl-2,3,6,7,7a,8,10,11-octahydrooxazolo[2,3-j][1,6]naphthyridin-5-one] was tested, and the MIC was less than 1 µM. Work on `CC(C)[C@H]1CO[C@]23CCN(Cc4ccccc4)C[C@H]2CC(=O)N13` [(1R,4S,8R)-10-benzyl-4-isopropyl-2-oxa-5,10-diazatricyclo[6.4.0.01,5]dodecan-6-one] yielded an MIC of 1 to 10 µM (≈ 0.314 to 3.14 µg/mL). Molecule `CC(C)[C@H]1CO[C@]23CCN(Cc4ccc(C(F)(F)F)cc4C(F)(F)F)C[C@H]2CCC(=O)N13` [(3S,7aR,11aR)-9-[[2,4-bis(trifluoromethyl)phenyl]methyl]-3-isopropyl-2,3,6,7,7a,8,10,11-octahydrooxazolo[2,3-j][1,6]naphthyridin-5-one] has an MIC of less than 1 µM.

Same assay, conditions: Mycobacterium tuberculosis, 144 h, REMA, read-out: MIC M. tuberculosis
`CC(C)[C@H]1CO[C@]23CC[C@H](N(Cc4ccc(C(F)(F)F)cc4)Cc4ccc(C(F)(F)F)cc4)C[C@H]2CCC(=O)N13` [Example 70, (3S,7aR,9S,11aR)-9-[bis[[4-(trifluoromethyl)phenyl]methyl]ami-no]-3-isopropyl-3,6,7,7a,8,9,10,11-octahydro-2H-oxazolo[2,3-j]quinolin-5-one] gave an MIC of less than 1 µM.

Same assay, conditions: Mycobacterium tuberculosis, REMA, read-out: MIC M. tuberculosis
`CC(C)[C@H]1CO[C@]23CCN(CCCc4ccc(C(F)(F)F)cc4)C[C@H]2CCC(=O)N13` [Example 39, (3S,7aR,11aR)-3-isopropyl-9-[3-[4-(trifluoromethyl)phenyl]propyl]-2,3,6,7,7a,8,10,11-octahydrooxazolo[2,3-j][1,6]naphthyridin-5-one] was tested, and the MIC was less than 1 µM.
